Measurements published in article PMC6009932, “Small molecule purine and pseudopurine derivatives: synthesis, cytostatic evaluations and investigation of growth inhibitory effect in non-small cell lung cancer A549” (Journal of Enzyme Inhibition and Medicinal Chemistry, 2017).
pIC50: −log10 of the molar value.

Tests used:
[1] = system: A549 (lung carcinoma); assay: Proliferation assay (MTT, 72 h) on A549; type: cell-based; conditions: Homo sapiens, A549 lung adenocarcinoma
Method: (§1) Human carcinoma cell lines A549 (lung carcinoma), HeLa (cervical carcinoma), SW620 (colorectal adenocarcinoma, metastatic), and CFPAC-1 (pancreatic cancer, derived from metastatic: liver), normal human lung (WI38) and foreskin (HFF-1) fibroblasts were obtained from the American Type Culture Collection (ATCC). Cells were cultured in humidified atmosphere at 37 °C with 5% CO2. As growth medium, Dulbecco’s modified Eagle medium (DMEM) was used with the addition of foetal bovine serum (10%), L-glutamine (2 mM) and antibiotics: streptomycin (100 µg/ml) and penicillin (100 U/ml).
(§2) Cells were seeded onto 96-well microtiter plates at a seeding density of 3000 cells/well for carcinoma cell lines, and 5000 cells/well for normal human fibroblasts. The next day, cells were treated with test agents in five different concentrations (0.01–100 µM) and further incubated for 72 h. […] Following 72 h incubation, the MTT assay was performed and measured absorbances were transformed into percentage of cell growth as described previously. Results were obtained from three independent experiments. IC50 values were calculated using linear regression analysis and results were statistically analysed by ANOVA, Tukey post-hoc test (p < .05).

[2] = system: SW620 (colorectal adenocarcinoma, metastatic); assay: Proliferation assay (MTT, 72 h) on SW620; type: cell-based; conditions: Homo sapiens, SW-620
Method: as §1, §2

[3] = system: CFPAC-1 (ductal pancreatic adenocarcinoma); assay: Proliferation assay (MTT, 72 h) on CFPAC-1; type: cell-based; conditions: Homo sapiens
Method: as §1, §2

[4] = system: HeLa (cervical carcinoma); assay: Proliferation assay (MTT, 72 h) on HeLa; type: cell-based; conditions: Homo sapiens
Method: as §1, §2

[5] = system: WI38 normal human lung fibroblasts; assay: Proliferation assay (MTT, 72 h) on normal lung fibroblasts WI38; type: cell-based; conditions: WI-38, read-out: IC50 WI38/HFF-1 (WI38)
Method: as §1, §2

Row | pIC50 [1] | pIC50 [2] | pIC50 [3] | pIC50 [4] | melting point [°C] | SMILES | pIC50 [5]
1 | 4.27 | 4.41 | 4.48 | 4.47 |  | Fc1ccc(-n2cc(Cn3cnc4c(Cl)ncnc43)nn2)cc1 [Compound 4a, 6-Chloro-9-{[1–(4-fluorophenyl)-1 H-1,2,3-triazol-4-yl]methyl}-9 H-purine] | 5.28
2 | 4.80 | 4.83 | 5.10 | 4.91 |  | FC(F)(F)c1ccc(-n2cc(Cn3cnc4c(Cl)ncnc43)nn2)cc1 [Compound 4c, 6-Chloro-9-{[1-(4-(trifluoromethyl)phenyl)-1H-1,2,3-triazol-4-yl]methyl}-9H-purine] | 6.12
3 | 4.26 | 4.38 | 4.51 | 4.48 | 143 to 145 | Fc1ccccc1-n1cc(Cn2cnc3c(Cl)ncnc32)nn1 [Compound 4d, 6-Chloro-9-{[1-(2-fluorophenyl)-1H-1,2,3-triazol-4-yl]methyl}-9H-purine] | 4.62
4 | 4.05 | 4.03 | < 4.00 | 4.24 |  | O=c1cc(Cn2cc(Cn3cnc4c(Cl)ncnc43)nn2)c2ccc(O)cc2o1 [Compound 4e, 4-{[4-((6-Chloro-9H-purin-9-yl)methyl)-1H-1,2,3-triazol-1-yl]methyl}-7-hydroxy-2H-chromen-2-one] | 5.18
5 | 5.03 | 4.93 | 5.13 | 4.65 | 151 to 154 | FC(F)(F)c1ccc(-n2cc(Cn3cnc4c(Cl)nccc43)nn2)cc1 [Compound 5c, 4-Chloro-1-{[1-(4-(trifluoromethyl)phenyl)-1H-1,2,3-triazol-4-yl]methyl}-1H-imidazo[4,5-c]pyridine] | 5.28
6 | 4.13 | 4.04 | < 4.00 | < 4.00 | 124 to 127 | Fc1ccccc1-n1cc(Cn2cnc3c(Cl)nccc32)nn1 [Compound 5d, 4-Chloro-1-{[1–(2-fluorophenyl)-1H-1,2,3-triazol-4-yl]methyl}-1H-imidazo[4,5-c]pyridine] | 4.62
7 | < 4.00 | < 4.00 | < 4.00 | < 4.00 |  | O=c1cc(Cn2cc(Cn3cnc4c(Cl)nccc43)nn2)c2ccc(O)cc2o1 [Compound 5e] | 4.22
8 | < 4.00 | < 4.00 | < 4.00 | < 4.00 | > 250 | O=c1cc(Cn2cc(Cn3cnc4ncnc(Cl)c43)nn2)c2ccc(O)cc2o1 [Compound 6e, 4-{[4-((6-Chloro-7H-purin-7-yl)methyl)-1H-1,2,3-triazol-1-yl]methyl}-7-hydroxy-2H-chromen-2-one] | 4.13
9 | < 4.00 | 4.16 | 4.05 | 4.43 | 183 to 185 | FC(F)(F)c1ccc(-n2cc(Cn3cnc4ccnc(Cl)c43)nn2)cc1 [Compound 7c, 4-Chloro-3-{[1-(4-(trifluoromethyl)phenyl)-1H-1,2,3-triazol-4-yl]methyl}-3H-imidazo[4,5-c]pyridine] | 4.71
10 | < 4.00 | < 4.00 | < 4.00 | 5.06 |  | O=c1cc(Cn2cc(Cn3cnc4ccnc(Cl)c43)nn2)c2ccc(O)cc2o1 [Compound 7e, 4-{[4-((4-Chloro-3H-imidazo[4,5-c]pyridin-3-yl)methyl)-1H-1,2,3-triazol-1-yl]methyl}-7-hydroxy-2H-chromen-2-one] | 5.12
11 | 4.07 | 5.07 | 4.32 | 4.40 |  | Fc1ccc(-n2cc(Cn3ccc4c(Cl)ncnc43)nn2)cc1 [Compound 8a, 4-Chloro-7-{[1-(4-fluorophenyl)-1H-1,2,3-triazol-4-yl]methyl}-7H-pyrrolo[2,3-d]pyrimidine] | 4.49
12 | 4.19 | 4.35 | 4.32 | 4.18 |  | Clc1ccc(-n2cc(Cn3ccc4c(Cl)ncnc43)nn2)cc1 [Compound 8b, 4-Chloro-7-{[1-(4-chlorophenyl)-1H-1,2,3-triazol-4-yl]methyl}-7H-pyrrolo[2,3-d]pyrimidine] | 4.68
13 | 4.33 | 4.43 | 4.33 | 4.41 |  | FC(F)(F)c1ccc(-n2cc(Cn3ccc4c(Cl)ncnc43)nn2)cc1 [Compound 8c, 4-Chloro-7-{[1-(4-(trifluoromethyl)phenyl)-1H-1,2,3-triazol-4-yl]methyl}-7H-pyrrolo[2,3-d]pyrimidine] | 5.34
14 | 4.16 | 4.18 | 4.45 | 4.08 | 112 to 114 | Fc1ccccc1-n1cc(Cn2ccc3c(Cl)ncnc32)nn1 [Compound 8d, 4-Chloro-7-{[1-(2-fluorophenyl)-1H-1,2,3-triazol-4-yl]methyl}-7H-pyrrolo[2,3-d]pyrimidine] | 4.65
15 | 4.16 | 4.13 | 4.44 | 4.47 | 202 to 204 | O=c1cc(Cn2cc(Cn3ccc4c(Cl)ncnc43)nn2)c2ccc(O)cc2o1 [Compound 8e, 4-{[4-((4-Chloro-7H-pyrrolo[2,3-d]pyrimidin-7-yl)methyl)-1H-1,2,3-triazol-1-yl]methyl}-7-hydroxy-2H-chromen-2-one] | 4.40
16 | 4.18 | 4.25 | 4.20 | 4.48 | 220 to 221 | FC(F)(F)c1ccc(-n2cc(Cn3cc(Br)c4c(Cl)ncnc43)nn2)cc1 [Compound 9c, 5-Bromo-4-chloro-7-{[1-(4-(trifluoromethyl)phenyl)-1H-1,2,3-triazol-4-yl]methyl}-7H-pyrrolo[2,3-d]pyrimidine] | 4.24
17 | 4.06 | 4.18 | 4.19 | 4.70 | 145 to 147 | Fc1ccccc1-n1cc(Cn2cc(Br)c3c(Cl)ncnc32)nn1 [Compound 9d, 5-Bromo-4-chloro-7-{[1–(2-fluorophenyl)-1 H-1,2,3-triazol-4-yl]methyl}-7 H-pyrrolo[2,3-d]pyrimidine] | 4.31
18 | 4.34 | 4.35 | 4.33 | 4.61 | > 250 | O=c1cc(Cn2cc(Cn3cc(Br)c4c(Cl)ncnc43)nn2)c2ccc(O)cc2o1 [Compound 9e, 4-{[4-((5-Bromo-4-chloro-7H-pyrrolo[2,3-d]pyrimidin-7-yl)methyl)-1H-1,2,3-triazol-1-yl]methyl}-7-hydroxy-2H-chromen-2-one] | 4.97
19 | < 4.00 | < 4.00 | < 4.00 | < 4.00 |  | Fc1ccc(-n2cc(Cn3ccc4cc(F)ccc43)nn2)cc1 [Compound 10a, 1-{[1-(4-Fluorophenyl)-1H-1,2,3-triazol-4-yl]methyl}-5-fluoro-1H-indole] | < 4.00
20 | 4.40 | 4.34 | < 4.00 | 4.51 | 117 to 120 | Fc1ccc2c(ccn2Cc2cn(-c3ccc(Cl)cc3)nn2)c1 [Compound 10b] | 4.24
21 | < 4.00 | < 4.00 | < 4.00 | 4.08 |  | Fc1ccc2c(ccn2Cc2cn(-c3ccccc3F)nn2)c1 [Compound 10d, 5-Fluoro-1-{[1-(2-fluorophenyl)-1H-1,2,3-triazol-4-yl]methyl}-1H-indole] | < 4.00
22 | 4.12 | 4.00 | 4.06 | 4.14 |  | Fc1ccc(-n2cc(Cn3cnc4ccccc43)nn2)cc1 [Compound 12a, 1-{[1-(4-fluorophenyl)-1H-1,2,3-triazol-4-yl]met-hyl}-1H-benzo[d]imidazole] | 4.04
23 | 4.85 | < 4.00 | 4.25 | 4.51 |  | FC(F)(F)c1ccc(-n2cc(Cn3cnc4ccccc43)nn2)cc1 [Compound 12c, 1-{[1–(4-(trifluoromethyl)phenyl)-1H-1,2,3-triazol-4-yl]methyl}-1H-benzo[d]imidazole] | < 4.00
24 | 4.44 | < 4.00 | 4.46 | 4.66 |  | Fc1ccccc1-n1cc(Cn2cnc3ccccc32)nn1 [Compound 12d, 1-{[1–(2-fluorophenyl)-1H-1,2,3-triazol-4-yl]methyl}-1H-benzo[d]imidazole] | 4.51
25 | < 4.00 | < 4.00 | < 4.00 | < 4.00 |  | O=c1cc(Cn2cc(Cn3cnc4ccccc43)nn2)c2ccc(O)cc2o1 [Compound 12e, 4-{4-[((1H-benzo[d]imidazol-1-yl)methyl)-1H-1,2,3-triazol-1-yl]methyl}-7-hydroxy-4a,8a-dihydro-2H-chromen-2-on] | < 4.00
